Patent publication US5981541A, “Substituted heterocycles as anti-tumor agents” (Rutgers, The State University of New Jersey, priority 1997, dated 1999)

Molecular target: T1, calf thymus topoisomerase II (Bos taurus, UniProt F1MDU7)
T1 construct: from tissue; host or cells: calf thymus glands
Assay: Topo II-mediated DNA cleavage assay
Type: biochemical
Settings: concentration relative to VM26 (= 1) producing the same cleavage on plasmid DNA in the presence of calf thymus topoisomerase II
From the text: The plasmid pET11a and the E. coli strain BL21(DE3) used for enzyme expression were purchased from Novagen. IPTG was purchased from Sigma. The ECL system used for the Western blotting analysis of bacterial lysates was from Amersham (UK). All the restriction enzymes and Vent polymerase were from New England Biolabs. Mammalian topoisomerase II was isolated from calf thymus glands according to the published procedure (Halligan et al., J. Biol. Chem. 260:2475-2482 (1985)). The single copy yeast plasmids YCpGAL1 expressing various topoisomerase I genes in JN2-134 yeast strain were a kind gift of Dr. M-A. Bjornsti (Thomas Jefferson University, Philadelphia, Pa.). All bacterial and yeast media were from Difco (Detroit, Mich.), while cell culture media were purchased from Gibco-BRL (Gaithersburg, Md.).
(§1) Cleavage assays for the recombinant topoisomerases I and calf thymus topoisomerases I and II were done as described (Liu et al., J. Biol. Chem. 258:15365-15370 (1983)). The plasmid YEpG DNA used for the cleavage assays was prepared and labeled at its 3'-end using the published procedures.

T1 sequence (F1MDU7 1-1532): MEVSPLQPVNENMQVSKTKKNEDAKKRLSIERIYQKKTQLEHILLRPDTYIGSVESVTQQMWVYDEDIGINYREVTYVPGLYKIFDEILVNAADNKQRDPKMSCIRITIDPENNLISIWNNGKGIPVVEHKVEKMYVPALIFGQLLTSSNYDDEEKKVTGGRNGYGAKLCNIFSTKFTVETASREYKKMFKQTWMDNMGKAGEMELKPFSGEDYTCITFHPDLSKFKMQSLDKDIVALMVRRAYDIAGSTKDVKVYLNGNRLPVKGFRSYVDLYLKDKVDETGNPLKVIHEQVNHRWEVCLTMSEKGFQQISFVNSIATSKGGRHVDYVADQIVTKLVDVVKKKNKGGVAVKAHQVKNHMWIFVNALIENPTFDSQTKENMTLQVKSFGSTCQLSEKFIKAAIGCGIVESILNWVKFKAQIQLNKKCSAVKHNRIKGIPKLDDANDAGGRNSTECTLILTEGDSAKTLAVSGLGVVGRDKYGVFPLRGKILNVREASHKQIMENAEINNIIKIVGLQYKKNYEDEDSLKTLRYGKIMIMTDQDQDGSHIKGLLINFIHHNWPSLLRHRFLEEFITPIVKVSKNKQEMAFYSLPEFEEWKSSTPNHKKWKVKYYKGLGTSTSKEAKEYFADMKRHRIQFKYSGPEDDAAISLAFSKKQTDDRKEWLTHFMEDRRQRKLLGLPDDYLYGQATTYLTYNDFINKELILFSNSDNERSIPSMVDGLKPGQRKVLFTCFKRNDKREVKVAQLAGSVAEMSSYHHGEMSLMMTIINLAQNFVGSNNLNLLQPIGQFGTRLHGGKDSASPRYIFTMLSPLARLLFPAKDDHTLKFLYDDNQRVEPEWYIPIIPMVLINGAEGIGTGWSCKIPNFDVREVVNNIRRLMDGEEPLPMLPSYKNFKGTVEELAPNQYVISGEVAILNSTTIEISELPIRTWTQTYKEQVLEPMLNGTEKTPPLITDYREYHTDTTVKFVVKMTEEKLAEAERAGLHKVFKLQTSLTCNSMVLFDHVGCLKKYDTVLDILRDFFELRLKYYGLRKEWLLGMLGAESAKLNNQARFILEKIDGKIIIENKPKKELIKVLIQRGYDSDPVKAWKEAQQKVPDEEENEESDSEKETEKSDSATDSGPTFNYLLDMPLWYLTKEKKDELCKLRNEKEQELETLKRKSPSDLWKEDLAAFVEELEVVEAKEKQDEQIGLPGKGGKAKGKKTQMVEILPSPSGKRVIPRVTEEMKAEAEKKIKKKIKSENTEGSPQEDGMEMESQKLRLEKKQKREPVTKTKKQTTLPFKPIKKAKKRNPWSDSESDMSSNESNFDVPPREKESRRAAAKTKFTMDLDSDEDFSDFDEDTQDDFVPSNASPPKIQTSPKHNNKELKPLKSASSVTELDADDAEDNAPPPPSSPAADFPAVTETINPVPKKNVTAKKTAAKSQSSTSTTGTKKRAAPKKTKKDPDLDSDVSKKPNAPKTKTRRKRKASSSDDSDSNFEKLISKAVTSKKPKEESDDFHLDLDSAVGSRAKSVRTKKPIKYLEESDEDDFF

| Compound | Topo II-mediated DNA cleavage (REC, Relative Effective Concentration) |
| --- | --- |
| COc1cc2c(cc1OC)-c1cc3ccccc3nc1CC2 [Compound 13d, 2,3-Dimethoxy-5,6-dihydrobenz[a]acridine] | > 1000 |
| COc1cc2cc3c(nc2cc1OC)CCc1c-3ccc2c1OCO2 [Compound 13e, 5,6-Dihydro-9,10-dimethoxy-3,4-methylenedioxybenz[a]acridine] | > 1000 |
| COc1cc2cc3c(nc2cc1OC)CCc1c-3ccc(OC)c1OC [Compound 13f, 5,6-Dihydro-3,4,9,10-tetramethoxybenz[a]acridine] | > 1000 |
| Oc1cc2c(cc1O)-c1cc3cc(O)c(O)cc3nc1CC2 [Compound 13g, 2,3,9,10-tetrahydroxy-5,6-dihydrobenz[a]acridine] | > 1000 |

Now from value to compound:

| Topo II-mediated DNA cleavage (REC, Relative Effective Concentration) | Compound |
| --- | --- |
| > 1000 | COc1cc2cc3c(nc2cc1OC)CCc1cc(Cl)ccc1-3 [Compound 13j, 3-Chloro-9,10-dimethoxy-5,6-dihydrobenz[a]acridine] |
| > 1000 | COc1cc2cc3c(ccc4cc(OC)c(OC)cc43)nc2cc1OC [Compound 14a, 2,3,9,10-Tetramethoxybenz[a]acridine] |
| > 1000 | COc1cc2ccc3nc4cc5c(cc4cc3c2cc1OC)OCO5 [Compound 14b, 2,3,-Dimethoxy-9,10-methylenedioxybenz[a]acridine] |

Molecular target: T2, human topoisomerase I (Homo sapiens, UniProt P11387)
T2 construct: 15 amino acid fusion from pET-11a vector (N); made in house; host or cells: E. coli BL21(DE3)
T2 sequence (P11387 1-765): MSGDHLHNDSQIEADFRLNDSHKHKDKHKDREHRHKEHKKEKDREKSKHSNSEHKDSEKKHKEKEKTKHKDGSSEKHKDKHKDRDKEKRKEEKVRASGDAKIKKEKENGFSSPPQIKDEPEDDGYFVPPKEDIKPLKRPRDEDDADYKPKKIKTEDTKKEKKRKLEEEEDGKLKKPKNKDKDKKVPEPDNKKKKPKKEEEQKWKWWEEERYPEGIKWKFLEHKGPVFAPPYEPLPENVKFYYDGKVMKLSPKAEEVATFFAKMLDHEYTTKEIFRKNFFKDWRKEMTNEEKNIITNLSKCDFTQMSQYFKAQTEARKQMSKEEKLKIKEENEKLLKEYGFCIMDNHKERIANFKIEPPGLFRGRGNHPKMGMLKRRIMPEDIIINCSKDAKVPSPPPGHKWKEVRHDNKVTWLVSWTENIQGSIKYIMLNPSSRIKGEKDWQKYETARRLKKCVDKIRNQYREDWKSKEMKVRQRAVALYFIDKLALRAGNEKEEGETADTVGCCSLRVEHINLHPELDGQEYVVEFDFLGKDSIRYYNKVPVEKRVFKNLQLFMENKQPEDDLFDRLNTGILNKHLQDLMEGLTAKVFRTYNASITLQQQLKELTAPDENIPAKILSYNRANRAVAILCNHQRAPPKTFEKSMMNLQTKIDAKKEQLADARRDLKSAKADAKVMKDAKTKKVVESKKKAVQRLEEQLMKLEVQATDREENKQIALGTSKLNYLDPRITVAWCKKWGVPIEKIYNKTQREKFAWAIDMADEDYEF
Assay: Topo I-mediated DNA cleavage assay
Type: biochemical
Settings: not given
From the text: To obtain large quantity of human topoisomerase I, the human topoisomerase I cDNA was cloned into the pET-11a vector, in which transcription of the cDNA is under the control of the inducible T7 promoter (Studier et al., Methods in Enzymol., Vol. 185:60-89, San Diego: Academic Press (1990)). Briefly, a 3.4 kb DNA fragment containing the entire coding sequence of human topoisomerase I and approximately 1 kb of untranslated region downstream of the stop codon was isolated from the plasmid YCpGAL1-hTOP1 (Bjornsti et al., Cancer Res. 49:6318-6323 (1989)) by cutting at the BamHI and EcoRI sites. The vector pET-11a was cut with the same restriction enzymes, dephosphorylated and ligated to the insert in the proper reading frame downstream of the vector cloning site. […] Since the translational start in pET is positioned at an upstream NdeI site, the expressed topoisomerase I has a 15 amino acid fusion at its N-terminus. pET1B was then transformed into E. coli BL21 (DE3), and, upon induction with 0.4 mM IPTG for 1 hour, the bacterial lysate was analyzed by 10% SDS-PAGE. […] Briefly, E. coli cells were lysed by repeated sonic bursts. The sonic extract was made in 1 M NaCl and 6% polyethylene glycol (PEG) to remove nucleic acids. The PEG supernatant was chromatographed directly on a hydroxyapatite column. […] The eluted enzyme was dialyzed against 50% glycerol, 30 mM potassium phosphate (pH 7.0), 1 mM dithiothreitol (DTT) and 0.1 mM EDTA and stored at -20° C.
as §1

| Compound | Topo I-mediated DNA cleavage (REC, Relative Effective Concentration) |
| --- | --- |
| COc1cc(C2c3cc4c(cc3C(OC3OC5COC(c6cccs6)OC5C(O)C3O)C3COC(=O)C23)OCO4)cc(OC)c1O (centres unmarked) [VM-26, reference compound] | > 1000 |

Same assay, conditions: concentration relative to camptothecin (CPT = 1) producing the same cleavage on plasmid DNA in the presence of human topoisomerase I

| Compound | Topo I-mediated DNA cleavage (REC, Relative Effective Concentration) |
| --- | --- |
| COc1cc2c(cc1OC)-c1cc3ccccc3nc1CC2 [Compound 13d, 2,3-Dimethoxy-5,6-dihydrobenz[a]acridine] | 100 |
| COc1cc2cc3c(nc2cc1OC)CCc1c-3ccc2c1OCO2 [Compound 13e, 5,6-Dihydro-9,10-dimethoxy-3,4-methylenedioxybenz[a]acridine] | 1.0 |
| COc1cc2cc3c(nc2cc1OC)CCc1c-3ccc(OC)c1OC [Compound 13f, 5,6-Dihydro-3,4,9,10-tetramethoxybenz[a]acridine] | 100 |
| Oc1cc2c(cc1O)-c1cc3cc(O)c(O)cc3nc1CC2 [Compound 13g, 2,3,9,10-tetrahydroxy-5,6-dihydrobenz[a]acridine] | 1.0 |

Continued, values first:

| Topo I-mediated DNA cleavage (REC, Relative Effective Concentration) | Compound |
| --- | --- |
| 10 | COc1cc2cc3c(nc2cc1OC)CCc1cc(Cl)ccc1-3 [Compound 13j, 3-Chloro-9,10-dimethoxy-5,6-dihydrobenz[a]acridine] |
| 1000 | COc1cc2cc3c(ccc4cc(OC)c(OC)cc43)nc2cc1OC [Compound 14a, 2,3,9,10-Tetramethoxybenz[a]acridine] |
| 1000 | COc1cc2ccc3nc4cc5c(cc4cc3c2cc1OC)OCO5 [Compound 14b, 2,3,-Dimethoxy-9,10-methylenedioxybenz[a]acridine] |
| 0.1 | Methylenedioxy-dihydro-demethyl-coralyne [MDD-Coralyne, reference compound] |

Same assay, conditions: summary statement

| Compound | topoisomerase I poisoning (in words) |
| --- | --- |
| COc1cc2cc3c(nc2cc1OC)CCc1c-3ccc2c1OCO2 [Compound 13e, 5,6-Dihydro-9,10-dimethoxy-3,4-methylenedioxybenz[a]acridine] | potent topoisomerase I poisions |

Tested on: camptothecin-resistant CPT-K5 cells
Assay: MTT-microtiter plate tetrazolinium cytotoxicity assay (MTA), CPT-K5
Type: cell-based, human
Settings: Homo sapiens, CPT-K5, 96 h, read-out: Cytotoxicity IC50, CPT-K5
Experimental: (§2) The IC50 of the drugs tested were determined by the MTT-microtiter plate tetrazolinium cytotoxicity assay (MTA) (Mosmann, T., J. Immunol. Methods 65:55-63 (1983); Denizot et al., J. Immunol. Methods 89:271-277 (1986)). Human lymphoblast RPMI 8402 cells and their camptothecin-resistant CPT-K5 cells (Andoh et al., Proc. Natl. Acad. Sci., USA 84:5565-5569 (1987)) were kindly provided by Dr. Toshiwo Andoh (Aichi Cancer Center Research Institute, Nagoya, Japan). The cell lines A2780 and its camptothecin-resistant derivative CPT-2000 were a generous gift of Dr. Jaulang Hwang (Institute of Molecular Biology, Academia sinica, Taiwan). Cells (2000 cells/well, seeded in […] growth medium) were grown in suspension at 37° C. in 5% CO2 and maintained by regular passage in RPMI medium supplemented with 10% heat inactivated fetal bovine serum, L-glutamine (2 mM), penicillin (100 U/mi), and streptomycin (0.1 mg/ml). The cells were exposed continuously for 4 days to drug concentrations ranging from 100 ug/ml to 1.0 ng/ml in ten fold dilutions, and assayed at the end of the fourth day. Each concentration and the no drug control were repeated at least twice in 6 replica wells. The results were plotted and the IC50 then measured. The drug sensitive human epidermoid carcinoma KB 3-1 cell line and its vinblastine-selected multidrug-resistant variant KB-V1 cells (Akiyama et al., Genetics 11:117-126 (1985)) were kindly provided by Dr. Michael Gottesmann (National Cancer Institute). They were grown as monolayer cultures at 37° C. in 5% CO2 and maintained by regular passage in Dulbecco's minimal essential medium supplemented with 10% heat inactivated fetal bovine serum. KB-V1 cells were maintained in the presence of […] vinblastine.

| Compound | IC50 |
| --- | --- |
| COc1cc2c(cc1OC)-c1cc3ccccc3nc1CC2 [Compound 13d, 2,3-Dimethoxy-5,6-dihydrobenz[a]acridine] | 8.6 µM |
| COc1cc2cc3c(nc2cc1OC)CCc1c-3ccc2c1OCO2 [Compound 13e, 5,6-Dihydro-9,10-dimethoxy-3,4-methylenedioxybenz[a]acridine] | 22.4 µM |
| COc1cc2cc3c(nc2cc1OC)CCc1c-3ccc(OC)c1OC [Compound 13f, 5,6-Dihydro-3,4,9,10-tetramethoxybenz[a]acridine] | 14.2 µM |
| Oc1cc2c(cc1O)-c1cc3cc(O)c(O)cc3nc1CC2 [Compound 13g, 2,3,9,10-tetrahydroxy-5,6-dihydrobenz[a]acridine] | 13.6 µM |
| COc1cc2cc3c(nc2cc1OC)CCc1cc(Cl)ccc1-3 [Compound 13j, 3-Chloro-9,10-dimethoxy-5,6-dihydrobenz[a]acridine] | 15.4 µM |
| COc1cc2cc3c(ccc4cc(OC)c(OC)cc43)nc2cc1OC [Compound 14a, 2,3,9,10-Tetramethoxybenz[a]acridine] | 2.9 µM |
| COc1cc2ccc3nc4cc5c(cc4cc3c2cc1OC)OCO5 [Compound 14b, 2,3,-Dimethoxy-9,10-methylenedioxybenz[a]acridine] | 7.5 µM |
| COc1cc(C2c3cc4c(cc3C(OC3OC5COC(c6cccs6)OC5C(O)C3O)C3COC(=O)C23)OCO4)cc(OC)c1O (centres unmarked) [VM-26, reference compound] | 0.5 µM |

Same assay, conditions: cpt-k5 cells, 96 h

| Compound | IC50 |
| --- | --- |
| Methylenedioxy-dihydro-demethyl-coralyne [MDD-Coralyne, reference compound] | 27 µM |

Tested on: Human lymphoblast RPMI 8402 cells
Assay: MTT-microtiter plate tetrazolinium cytotoxicity assay (MTA), RPMI 8402
Type: cell-based
Settings: Homo sapiens, RPMI 8402, 96 h, read-out: Cytotoxicity IC50, RPMI
Experimental: as §2

| Compound | IC50 |
| --- | --- |
| COc1cc2c(cc1OC)-c1cc3ccccc3nc1CC2 [Compound 13d, 2,3-Dimethoxy-5,6-dihydrobenz[a]acridine] | 1 µM |
| COc1cc2cc3c(nc2cc1OC)CCc1c-3ccc2c1OCO2 [Compound 13e, 5,6-Dihydro-9,10-dimethoxy-3,4-methylenedioxybenz[a]acridine] | 3 µM |
| COc1cc2cc3c(nc2cc1OC)CCc1c-3ccc(OC)c1OC [Compound 13f, 5,6-Dihydro-3,4,9,10-tetramethoxybenz[a]acridine] | 14.2 µM |
| Oc1cc2c(cc1O)-c1cc3cc(O)c(O)cc3nc1CC2 [Compound 13g, 2,3,9,10-tetrahydroxy-5,6-dihydrobenz[a]acridine] | 20.3 µM |
| COc1cc2cc3c(nc2cc1OC)CCc1cc(Cl)ccc1-3 [Compound 13j, 3-Chloro-9,10-dimethoxy-5,6-dihydrobenz[a]acridine] | 9.2 µM |
| COc1cc2cc3c(ccc4cc(OC)c(OC)cc43)nc2cc1OC [Compound 14a, 2,3,9,10-Tetramethoxybenz[a]acridine] | 2.9 µM |
| COc1cc2ccc3nc4cc5c(cc4cc3c2cc1OC)OCO5 [Compound 14b, 2,3,-Dimethoxy-9,10-methylenedioxybenz[a]acridine] | 4.5 µM |
| COc1cc(C2c3cc4c(cc3C(OC3OC5COC(c6cccs6)OC5C(O)C3O)C3COC(=O)C23)OCO4)cc(OC)c1O (centres unmarked) [VM-26, reference compound] | 0.3 µM |

Same assay, conditions: rpmi 8402 cells, 96 h

| Compound | IC50 |
| --- | --- |
| Methylenedioxy-dihydro-demethyl-coralyne [MDD-Coralyne, reference compound] | 8.1 µM |
